Reference: patent US5756505A, “N-acylpiperazine derivative, antibacterial drug and anti-ulcer drug” (Shiseido Co., Ltd., priority 1995, dated 1998)
In brackets after ≈: the same amount, converted by molar mass. Read-outs that look alike come from different tables or passages of the source.

Key:
[1] = tested on: Helicobacter pyroli; test: AHP: Antibacterial Activity Test Against Helicobacter pyroli; format: cell-based, Helicobacter pyroli NCTC 11637; details: for MIC: Helicobacter, NCTC11637, 168 h, H. pyroli NCTC 11637, agar dilution, 7 days, read-out: AHP: minimum inhibitory concentration (MIC)
Procedure: AHP: Antibacterial […] Against Helicobacter pyroli i)Meaning The minimum inhibitory concentration (MIC) against Helicobacter pyroli (microaerophilic gram-negative bacterium which is supposed to deeply involve in pathogenesis, relapse, and recrudescence of ulcer, referred to as "HP" in the following) is measured so as to find out compounds which have antimicrobial activity against Helicobacter pyroli. ii)Method MICs were determined by the agar dilution method. […] Grown colonies were transfered to the same plate and cultured for 3 days under the same condition. […] A 1,000 μg/ml solution of the sample compound containing DMSO not more than 25% was […] diluted 2-fold in sterile purified water. 100 μl volume from each dilution was mixed thoroughly with 900 μl of brucella agar supplemented with 5% horse blood and solidified in a 24 well micro plate. 10 μl of the bacterial suspension (about 10^3 cfu) was inoculated on this plate and cultured for 7 days under the same condition as that of preculture.

[2] = tested on: isolated gastric fundic gland; test: CAP: Acid Secretion Inhibition Test In Vitro ([14C]-aminopyrine uptake); format: cell-based, rabbit (male Japanese White); details: for inhibition at 10 µM: Oryctolagus cuniculus, read-out: CAP: acid secretion inhibitory rate
Procedure: CAP: Acid Secretion Inhibition Test In Vitro
The acid secretion inhibitory activity in a cell level is studied. It can also be used for studying the mechanism of the effect. […]
ii-a) Preparation of isolated gastric fundus gland suspension
First, an isolated gastric fundic gland sample was prepared. Namely, a male Japanese White rabbit (2.5 to 3 kg) was anesthetized to death with Nembutal™ and then the abdomen was incised. Immediately thereafter, the stomach was removed and, after its pyloric and cardiac antrum were severed, incised along its greater curvature into two sheets. The gastric contents adhering to the mucosal surface was washed out with ice-cooled PBS (-) and then carefully washed therein. The gastric wall was spread on a cork board with its mucosal surface facing up and the feed and mucus thereon were completely removed with sterile gauze. The mucosa was separated therefrom by a spatula and then collected in ice-cooled PBS (-). After being washed twice with PBS (-), the mucosa was minced into 2-3mm^3 pieces by scissors. These pieces were further washed twice with a nutrient solution. The nutrient solution comprises 132.4 mM of NaCl, 5.4 mM of KCl, 5 mM of Na2 HPO4 ·12H2 O, 1 mM of NaH2 PO4 ·2H2 O, 1.2 mM of MgSO4, 1 mM of CaCl2, 25 mM of HEPES, 2mg/ml of glucose, and 1 mg/ml of BSA. Into 70 ml of the nutrient solution containing 1 mg/ml of collagenase, minced mucosal pieces were dispersed and intensely stirred in a conical flask with a stirrer at 37° C. for 40 to 60 minutes. During this period, 100% O2 was sprayed on the nutrient solution surface and the pH was appropriately measured such that it was immediately adjusted to pH 7.4, when the value was therebelow, with a base. The nutrient solution was added to the reaction solution so as to attain the total amount of about 200 ml. After being filtered through a mesh, the suspension was divisionally introduced into 50 ml centrifuge tubes and left for 15 minutes such that gastric fundic gland was deposited. The supernatant was repeatedly removed by an aspirator, dispersed in the nutrient solution, and then left such that the gastric fundic gland was washed three times. At this time, without using a pipette, the suspension was alternately introduced into two centrifuge tubes so as to effect dispersion. The number of cells was counted under microscope and adjusted to 1.6×10^6 cells/ml. […]
ii-b) [^14 C]-aminopyrine uptake test
Then, [^14 C]-aminopyrine uptake test was performed. After an Eppendorf tube was weighed, 10 μl (final concentration: 10^-5 M) of histamine dissolved in the above-mentioned nutrient solution, 10 μl (final concentration: 10^-5 M) of the test compound dissolved in DMSO, and 10 μl (final concentration: 0.05 μCi/ml) of [^14 C]-aminopyrine diluted with the nutrient solution were introduced therein and then 970 μl of the isolated gastric fundic gland suspension prepared above were added thereto. Subsequently, this mixture was shaken at 37° C. for 40 minutes at 125 cycles/minute. After being centrifuged for 30 minutes 200 μl of its supernatant was collected into a mini-vial, while the rest was removed by an aspirator. The gland pellet was completely dried as the tube with its lid being opened was kept for one night in a drying oven at 80° C. and then the lid was closed and the weight was determined at room temperature. Then 100 μl of 1N KOH were added thereto and the tube with its lid being closed was treated at 60° C. for 1 to 2 hours so as to dissolve the pellet. Then, the contents thereof were transferred to a mini-vial. Into the mini-vial containing the supernatant or gland pellet, 4 ml of Atomlite™ were added and then the radioactivity was measured by a liquid scintillation counter. Here, after the radioactivity of the gland pellet was corrected by using a sample in which 20 mM of NaSCN were added so as to cancel the hydrogen ion concentration gradient, the integration ratio of aminopyrine specifically trapped by the gland pellet was calculated. […]

[3] = tested on: stress ulcer formation; test: WIS: Restraint and Water Immersion Stress-Induced Ulcer Inhibition Test; format: in vivo, rat (male Crj:SD or Slc:SD); details: rat; for WIS: ulcer formation inhibitory rate: 100 mg/kg oral, 7 hours stress; for anti-ulcer effect (in words): in vivo
Procedure: WIS: Restraint and Water Immersion Stress-Induced Ulcer Inhibition Test
The degree of inhibition of the stress ulcer formation is tested.
Male Crj:SDor Slc:SD rats (6 to 7-week-old) were fasted overnight, but allowed free access to water. Each group has 5 to 8 of these rats. The sample compound was dissolved or suspended in an aqueous solution of 0.3% sodium carboxymethylcellulose or 0.05% Tween 80 and then was orally administered (100 mg/10 ml/kg). To a control group, the vehicle was administered. 10 minuts later, the rats were placed in a stress cage and immersed to the level of xipfoid process in a water bath (21° C.) for 7 hours. At the end of the stress, the rats were sacrificed by inhalation of ether or carbon dioxide. Then, the stomach of each was removed, inflated by injecting 10 ml of 5% formalin neutral buffer solution, and immersed in 1% formalin neutral buffer solution for 30 minutes or more to be fixed. The stomach was incised along the greater curvature and then the length of each erosion in the glandular portion was determined under dissecting microscope. The sum of the length of erosions per stomach was defined as ulcer index (UI).
The effect obtained when 100 mg/kg of the sample compound had been administered was expressed as ulcer formation inhibitory rate (%) as follows:
ulcer formation inhibitory rate (%)=[1-(UI in sample group/UI in control group)]×100

[4] = final concentration 10^-5 M, histamine 10^-5 M, rabbit gastric fundic gland

Row | MIC [1] | SMILES | CAP: acid secretion inhibitory rate [2, 4] | WIS: ulcer formation inhibitory rate [3] | inhibition at 10 µM [2, 4] | anti-ulcer effect (in words) [3] | inhibition at 10 µM [2] | antibacterial activity against Helicobacter pyroli (in words) [1]
1 | 12.5 µg/mL (≈ 28.1 µM) | CC(C)Cc1cc(C(=O)N2CCN(CC(C)C)CC2)ccc1OCc1ccc(F)c(F)c1 [Example 26, 1-[4-(3,4-difluorobenzyloxy)-3-isobutylbenzoyl]-4-isobutylpiperazine] | 99% | 63% |  |  |  | 
2 | < 3.13 µg/mL | CC(C)Cc1cc(C(=O)N2CCN(C(=O)C(C)C)CC2)ccc1OCc1ccc(F)cc1 [Example 6, 1-[4-(4-fluorobenzyloxy)-3-isobutylbenzoyl]-4-isobutyrylpiperazine] |  | 56% | 57% | sufficient effects |  | 
3 | 12.5 µg/mL (≈ 33.7 µM) | CC(C)CN1CCN(C(=O)c2ccc(OCc3ccc(F)cc3)cc2)CC1 [Example 5, 1-[4-(4-fluorobenzyloxy)benzoyl]-4-isobutylpiperazine] | 96% | 59% |  |  |  | 
4 | 12.5 µg/mL | CC(C)Cc1cc(C(=O)N2CCN(CC(C)C)CC2)ccc1OCc1ccc([N+](=O)[O-])cc1.Cl [Example 13, 1-isobutyl-4-[3-isobutyl-4-(4-nitrobenzyloxy)benzoyl]piperazine hydrochloride] |  | 77% |  |  |  | 
5 | 25 µg/mL | CC(C)Cc1cc(C(=O)N2CCN(CC(C)C)CC2)ccc1OCc1ccc(F)c(F)c1.Cl [Example 23, 1-[4-(3,4-difluorobenzyloxy)-3-isobutylbenzoyl]-4-isobutylpiperazine hydrochloride] |  | 83% | 99% |  |  | 
6 | 12.5 µg/mL (≈ 29.3 µM) | CC(C)Cc1cc(C(=O)N2CCN(CC(C)C)CC2)ccc1OCc1ccccc1F [Example 18, 1-[4-(2-fluorobenzyloxy)-3-isobutylbenzoyl]-4-isobutylpiperazine] |  | 64% | 100% |  |  | 
7 |  | CC(C)Cc1cc(C(=O)N2CCN(CCO)CC2)ccc1OCc1ccc(F)cc1 [Example 9, 1-[4-(4-fluorobenzyloxy)-3-isobutylbenzoyl]-4-(2-hydroxyethyl)piperazine] |  | 88% | 100% | sufficient effects |  | 
8 |  | Cc1cccc(COc2ccc(C(=O)N3CCN(CC(C)C)CC3)cc2CC(C)C)c1F.Cl [Example 12, 1-[4-(2-fluoro-3-methylbenzyloxy)-3-isobutylbenzoyl]-4-isobutylpiperazine hydrochloride] |  | 83% | 100% |  |  | 
9 |  | CC(C)Cc1cc(CC(=O)N2CCN(CC(C)C)CC2)ccc1OCc1ccccc1 [Example 15, 1-(4-benzyloxy-3-isobutylphenylacetyl)-4-isobutylpiperazine] |  | 71% |  | sufficient effects were observed | 99% | 
10 |  | CC(C)CN1CCN(C(=O)c2ccc(OCc3ccccc3)cc2)CC1 [Example 3, 1-(4-benzyloxybenzoyl)-4-isobutylpiperazine] |  | 69% | 85% |  |  | 
11 | 12.5 µg/mL | CC(C)Cc1cc(C(=O)N2CCN(CC(C)C)CC2)ccc1OCc1ccc(F)cc1.O=C(O)C(=O)O [Example 25, 1-[4-(4-fluorobenzyloxy)-3-isobutylbenzoyl]-4-isobutylpiperazine oxalate] | 95% | 70% |  |  |  | 
12 |  | CC(C)Cc1cc(C(=O)N2CCN(CC(C)C)CC2)ccc1OCc1ccccc1F.Cl [Example 19, 1-[4-(2-fluorobenzyloxy)-3-isobutylbenzoyl]-4-isobutylpiperazine hydrochloride] | 95% | 64% |  |  |  | 
13 |  | CC(C)Cc1cc(C(=O)N2CCN(CC(C)C)CC2)ccc1OCc1ccc(F)cc1 [Example 21, 1-[4-(4-fluorobenzyloxy)-3-isobutylbenzoyl]-4-isobutylpiperazine] |  | 84% | 100% | improved |  | improved
14 | 6.25 µg/mL (≈ 14.1 µM) | CC(C)Cc1cc(C(=O)N2CCN(CC(C)C)CC2)ccc1OCc1ccc(F)cc1F [Example 27, 1-[4-(2,4-difluorobenzyloxy)-3-isobutylbenzoyl]-4-isobutylpiperazine] | 99% | 60% |  |  |  | 
15 |  | CC(C)CN1CCN(C(=O)c2ccc(OCc3ccc(F)cc3)c([N+](=O)[O-])c2)CC1.Cl [Example 8, 1-[4-(4-fluorobenzyloxy)-3-nitrobenzoyl]-4-isobutylpiperazine hydrochloride] |  | 35% | 100% |  |  | 
16 |  | CC(C)Cc1cc(CN2CCN(CC(C)C)CC2)ccc1OCc1ccc(F)cc1.Cl.Cl [Example 20, 1-[4-(4-fluorobenzyloxy)-3-isobutylbenzyl]-4-isobutylpiperazine dihydrochloride] |  | 82% | 100% | effects were observed |  | 
17 |  | CC(C)CN1CCN(C(=O)c2ccc(OCc3ccc(F)cc3)cc2)CC1.Cl [Example 2, 1-[4-(4-fluorobenzyloxy)benzoyl]-4-isobutylpiperazine hydrochloride] |  | 79% | 99% |  |  | 

Row | SMILES | MIC [1] | CAP: acid secretion inhibitory rate [2, 4] | WIS: ulcer formation inhibitory rate [3] | inhibition at 10 µM [2, 4] | anti-ulcer effect (in words) [3] | inhibition at 10 µM [2] | antibacterial activity against Helicobacter pyroli (in words) [1]
18 | CC(C)Cc1cc(C(=O)N2CCN(CC(C)C)CC2)ccc1OCc1ccccc1 [Example 16, 1-(4-benzyloxy-3-isobutylbenzoyl)-4-isobutylpiperazine] | 50 µg/mL (≈ 122 µM) |  | 72% | 98% |  |  | 
19 | CC(C)Cc1cc(C(=O)N2CCN(CC(C)C)CC2)ccc1OCc1ccc(Cl)cc1 [Example 17, 1-[4-(4-chlorobenzyloxy)-3-isobutylbenzoyl]-4-isobutylpiperazine] | 12.5 µg/mL (≈ 28.2 µM) |  | 66% | 99% |  |  | 
